Laboratory results: patent US20080241834A1, “Method for improving neoadjuvant chemotherapy” (priority 2006, published 2008)

Tests used:
[1] = system: breast cancer in non-carriers; test: Response to neoadjuvant chemotherapy in matched non-carrier breast cancer patients; format: in vivo, human
Procedure: (§1) 3479 unselected incident cases of invasive breast cancer were identified at 18 different hospitals in Poland during the study period. The medical records and pathology reports were reviewed locally at the study centre in Szczecin. Information was recorded on age at diagnosis, stage, grade and lymph-node status, estrogen-receptor status, multi-centricity and bilaterality. Pathology review of tumor blocks and/or paraffin-embedded slides were requested from the corresponding pathology centres. One or more specimens were obtained from 3136 of the […] patients. A central pathology review was conducted in Szczecin by two pathologists associated with the study. Pathologists were blinded to mutation status. […] Pre-treatment tumor size was determined in all patients by a combination of clinical examination and mammography (for some patients ultrasound examinations were also performed). Post-treatment size was determined by pathology report. Lymph node status was evaluated prior to and after treatment. Pre-treatment lymph node status was evaluated with a combination of clinical exam, ultrasound and fine needle aspiration. After treatment all patients underwent axillary dissection and node status was evaluated by pathology report. […] The statistical significance of group differences was assessed using Fisher's Exact Test. […]

[2] = system: breast cancer in BRCA1 mutation carriers; test: Response to neoadjuvant chemotherapy in breast cancer patients carrying a BRCA1 mutation; format: in vivo, human
Procedure: as §1

[3] = system: MCF7 cells; details: BRCA1 protein downregulation, premature inactivation of the spindle checkpoint; cited from earlier work
[4] = system: breast cancer; details: cited from earlier work
[5] = system: tumor cell lines; details: BRCA1 protein reconstituted into the tumor cell lines; cited from earlier work
[6] = system: ovarian cancer; details: cited from earlier work
[7] = system: lung cancer; details: cited from earlier work

In the case of `CC(=O)O[C@@]12CO[C@@H]1C[C@H](O)[C@@]1(C)C(=O)[C@H](O)C3=C(C)[C@@H](OC(=O)[C@H](O)[C@@H](NC(=O)OC(C)(C)C)c4ccccc4)C[C@@](O)([C@@H](OC(=O)c4ccccc4)[C@H]21)C3(C)C` [docetaxel], the “patients with complete or partial response, of patients treated” value ([1]; non-carriers) is reported as 12 of 12, the patients who responded ([1]; non-carriers with ER-negative tumors) is reported as 4 and the “patients with complete or partial response, of patients treated” value [2] is reported as 6 of the 15.

In the case of `CC(=O)O[C@H]1C(=O)[C@@]2(C)[C@H]([C@H](OC(=O)c3ccccc3)[C@]3(O)C[C@H](OC(=O)[C@H](O)[C@@H](NC(=O)c4ccccc4)c4ccccc4)C(C)=C1C3(C)C)[C@]1(OC(C)=O)CO[C@@H]1C[C@@H]2O` [paclitaxel], the sensitivity to paclitaxel [3] is given as “insensitive”, the effectivity [4] is given as roughly 50% and the sensitivity to paclitaxel [5] is given as “increased”. For the same molecule, the effectivity [6] was “around 30%” and the effectivity [7] was roughly 20%.
